Experimental data as given in patent US20090156629A1, “INDENOISOQUINOLINE-RELEASABLE POLYMER CONJUGATES” (Enzon Pharmaceuticals, Inc., priority 2006, published 2009).

Assays:
[1] = tested on: standard panel of 12 tumor cell lines (NCI-H23, NCI-H522, MDA-MB-231, MDA-MB-435, SW-620, COLO 205, LOX, UACC-62, OVCAR-3, OVCAR-5, U251 and SF-295); assay: In vivo hollow fiber assay (HFA); design: species or system mice; conditions: out of 48; NSC 706744 at 100 and 150 mg/kg; conjugates at 12 and 18 (20k) or 9 and 12 (40k) mg/kg/dose IndQ equivalent
Procedure: A standard panel of 12 tumor cell lines is used for routine hollow fiber screening. These include NCI-H23, NCI-H522, MDA-MB-231, MDA-MB-435, SW-620, COLO 205, LOX, UACC-62, OVCAR-3, OVCAR-5, U251 and SF-295. A total of 3 different tumor lines are prepared for each experiment so that each mouse receives 3 intraperitoneal implants (1 of each tumor line) and 3 subcutaneous implants (1 of each tumor line). Each compound tested is administered by intraperitoneal injection at 2 dose levels. The percent net growth for each cell line in each treatment group is calculated and compared to the percent net growth in the vehicle treated controls. A 50% or greater reduction in percent net growth in the treated samples compared to the vehicle control samples is considered a positive result. […] A compound is considered for xenograft testing if it has a combined ip+sc score of 20 or greater, a sc score of 8 or greater, or produces cell death of any cell line at either dose level evaluated.
The in vivo hollow fiber assay (HFA) in mice was conducted per previously published methods using the 20 k ΔPEG-RNL9-IndQ at equivalent IndQ active doses of 12 and 18 mg/kg/dose and 40 k ΔPEG-RNL9-IndQ at equivalent IndQ active doses of 9 and 12 mg/kg/dose. For comparison, NSC 706744 (native or unmodified) was evaluated at doses of 100 and 150 mg/kg/dose which are the highest doses routinely tested.

[2] = tested on: standard panel of 12 tumor cell lines (NCI-H23, NCI-H522, MDA-MB-231, MDA-MB-435, SW-620, COLO 205, LOX, UACC-62, OVCAR-3, OVCAR-5, U251 and SF-295); conditions: historic data for comparison; cited from earlier work

SMILES	score in IP fibers [1]	score in SC fibers [1]	Activity [2]	Cell Death [2]	IP + SC score [2]	IP score [2]	SC score [2]
COc1cc2c3c(n(CCCNCCO)c(=O)c2cc1OC)-c1cc2c(cc1C3=O)OCO2 [NSC 706744]	6/48	6/48	–	–	–	–	–
CC(=O)O[C@H]1C(=O)[C@@]2(C)[C@H]([C@H](OC(=O)c3ccccc3)[C@]3(O)C[C@H](OC(=O)[C@H](O)[C@@H](NC(=O)c4ccccc4)c4ccccc4)C(C)=C1C3(C)C)[C@]1(OC(C)=O)CO[C@@H]1C[C@@H]2O [Taxol]	–	–	Active	Yes	42	36	6
